{
  "source": "ChEMBL document CHEMBL3525998",
  "about": "“Metabolism of saikosaponin a in rats: diverse oxidations on the aglycone moiety in liver and intestine in addition to hydrolysis of glycosidic bonds” (Drug Metab Dispos, 2013)",
  "format_in_all_cases": "ADME, organism-based",
  "conditions_in_all_cases": "in vivo",
  "key": {"[1]": {"experiment": "Drug excretion in Sprague-Dawley rat bile assessed as metabolite 3-keto-saikogenin f level at 50 mg/kg, po administered through gavage by LC-DAD-IT-TOF-MS analysis; call rule not given here", "parameters": "dose 50 mg/kg, route oral"}, "[2]": {"experiment": "Drug excretion in Sprague-Dawley rat bile assessed as metabolite hydroxysaikosaponin a level at 15 mg/kg, iv by LC-DAD-IT-TOF-MS analysis", "parameters": "dose 15 mg/kg, route intravenous"}, "[3]": {"experiment": "Drug excretion in Sprague-Dawley rat urine assessed as metabolite saikogenin f level at 15 mg/kg, iv by LC-DAD-IT-TOF-MS analysis", "parameters": "dose 15 mg/kg, route intravenous"}, "[4]": {"experiment": "Drug excretion in Sprague-Dawley rat urine assessed as metabolite hydroxysaikosaponin a level at 15 mg/kg, iv by LC-DAD-IT-TOF-MS analysis", "parameters": "dose 15 mg/kg, route intravenous"}, "Plasma [5]": {"test_system": "Plasma", "experiment": "Drug metabolism in Sprague-Dawley rat plasma assessed as metabolite delta1-saikogenin f formation at 50 mg/kg, po administered through gavage by LC-DAD-IT-TOF-MS analysis", "parameters": "dose 50 mg/kg, route oral"}, "[6]": {"experiment": "Drug excretion in Sprague-Dawley rat bile assessed as metabolite saikogenin f level at 15 mg/kg, iv by LC-DAD-IT-TOF-MS analysis", "parameters": "dose 15 mg/kg, route intravenous"}, "Plasma [7]": {"test_system": "Plasma", "experiment": "Drug metabolism in Sprague-Dawley rat plasma assessed as metabolite 3-keto-saikogenin f formation at 50 mg/kg, po administered through gavage by LC-DAD-IT-TOF-MS analysis", "parameters": "dose 50 mg/kg, route oral"}, "[8]": {"experiment": "Drug excretion in Sprague-Dawley rat feces assessed as metabolite saikogenin f level at 50 mg/kg, po administered through gavage by LC-DAD-IT-TOF-MS analysis", "parameters": "dose 50 mg/kg, route oral"}, "[9]": {"experiment": "Drug excretion in Sprague-Dawley rat feces assessed as metabolite prosaikogenin f level at 15 mg/kg, iv by LC-DAD-IT-TOF-MS analysis", "parameters": "dose 15 mg/kg, route intravenous"}, "[10]": {"experiment": "Drug excretion in Sprague-Dawley rat urine assessed as metabolite 3-keto-saikogenin f level at 15 mg/kg, iv by LC-DAD-IT-TOF-MS analysis", "parameters": "dose 15 mg/kg, route intravenous"}, "[11]": {"experiment": "Drug excretion in Sprague-Dawley rat feces assessed as metabolite delta1-saikogenin f level at 15 mg/kg, iv by LC-DAD-IT-TOF-MS analysis", "parameters": "dose 15 mg/kg, route intravenous"}, "[12]": {"experiment": "Drug excretion in Sprague-Dawley rat bile at 15 mg/kg, iv by LC-DAD-IT-TOF-MS analysis", "parameters": "dose 15 mg/kg, route intravenous"}, "[13]": {"experiment": "Drug excretion in Sprague-Dawley rat bile assessed as metabolite 3-keto-saikogenin f level at 15 mg/kg, iv by LC-DAD-IT-TOF-MS analysis", "parameters": "dose 15 mg/kg, route intravenous"}, "[14]": {"experiment": "Drug excretion in Sprague-Dawley rat urine assessed as metabolite delta1-saikogenin f level at 50 mg/kg, po administered through gavage by LC-DAD-IT-TOF-MS analysis", "parameters": "dose 50 mg/kg, route oral"}, "[15]": {"experiment": "Drug excretion in Sprague-Dawley rat urine at 15 mg/kg, iv by LC-DAD-IT-TOF-MS analysis", "parameters": "dose 15 mg/kg, route intravenous"}, "[16]": {"experiment": "Drug excretion in Sprague-Dawley rat urine assessed as metabolite prosaikogenin f level at 50 mg/kg, po administered through gavage by LC-DAD-IT-TOF-MS analysis", "parameters": "dose 50 mg/kg, route oral"}, "[17]": {"experiment": "Drug excretion in Sprague-Dawley rat feces assessed as metabolite hydroxysaikosaponin a level at 50 mg/kg, po administered through gavage by LC-DAD-IT-TOF-MS analysis", "parameters": "dose 50 mg/kg, route oral"}, "[18]": {"experiment": "Drug excretion in Sprague-Dawley rat urine assessed as metabolite saikogenin f-27-oic acid level at 15 mg/kg, iv by LC-DAD-IT-TOF-MS analysis", "parameters": "dose 15 mg/kg, route intravenous"}, "[19]": {"experiment": "Drug excretion in Sprague-Dawley rat urine at 50 mg/kg, po administered through gavage by LC-DAD-IT-TOF-MS analysis", "parameters": "dose 50 mg/kg, route oral"}, "[20]": {"experiment": "Drug excretion in Sprague-Dawley rat feces assessed as metabolite delta1-saikogenin f level at 50 mg/kg, po administered through gavage by LC-DAD-IT-TOF-MS analysis", "parameters": "dose 50 mg/kg, route oral"}, "[21]": {"experiment": "Drug excretion in Sprague-Dawley rat bile assessed as metabolite prosaikogenin f level at 50 mg/kg, po administered through gavage by LC-DAD-IT-TOF-MS analysis", "parameters": "dose 50 mg/kg, route oral"}, "[22]": {"experiment": "Drug excretion in Sprague-Dawley rat feces assessed as metabolite hydroxysaikosaponin a level at 15 mg/kg, iv by LC-DAD-IT-TOF-MS analysis", "parameters": "dose 15 mg/kg, route intravenous"}, "Plasma [23]": {"test_system": "Plasma", "experiment": "Drug uptake in Sprague-Dawley rat plasma at 15 mg/kg, iv by LC-DAD-IT-TOF-MS analysis", "parameters": "dose 15 mg/kg, route intravenous"}, "[24]": {"experiment": "Drug excretion in Sprague-Dawley rat feces at 15 mg/kg, iv by LC-DAD-IT-TOF-MS analysis", "parameters": "dose 15 mg/kg, route intravenous"}, "[25]": {"experiment": "Drug excretion in Sprague-Dawley rat urine assessed as metabolite saikogenin f-27-oic acid level at 50 mg/kg, po administered through gavage by LC-DAD-IT-TOF-MS analysis", "parameters": "dose 50 mg/kg, route oral"}, "[26]": {"experiment": "Drug excretion in Sprague-Dawley rat urine assessed as metabolite hydroxysaikosaponin a level at 50 mg/kg, po administered through gavage by LC-DAD-IT-TOF-MS analysis", "parameters": "dose 50 mg/kg, route oral"}, "[27]": {"experiment": "Drug excretion in Sprague-Dawley rat bile assessed as metabolite saikogenin f-27-oic acid level at 50 mg/kg, po administered through gavage by LC-DAD-IT-TOF-MS analysis", "parameters": "dose 50 mg/kg, route oral"}, "Plasma [28]": {"test_system": "Plasma", "experiment": "Drug metabolism in Sprague-Dawley rat plasma assessed as metabolite saikogenin f formation at 50 mg/kg, po administered through gavage by LC-DAD-IT-TOF-MS analysis", "parameters": "dose 50 mg/kg, route oral"}, "[29]": {"experiment": "Drug excretion in Sprague-Dawley rat urine assessed as metabolite prosaikogenin f level at 15 mg/kg, iv by LC-DAD-IT-TOF-MS analysis", "parameters": "dose 15 mg/kg, route intravenous"}, "Plasma [30]": {"test_system": "Plasma", "experiment": "Drug metabolism in Sprague-Dawley rat plasma assessed as metabolite delta1-saikogenin f formation at 15 mg/kg, iv by LC-DAD-IT-TOF-MS analysis", "parameters": "dose 15 mg/kg, route intravenous"}, "[31]": {"experiment": "Drug excretion in Sprague-Dawley rat feces assessed as metabolite 3-keto-saikogenin f level at 50 mg/kg, po administered through gavage by LC-DAD-IT-TOF-MS analysis", "parameters": "dose 50 mg/kg, route oral"}, "[32]": {"experiment": "Drug excretion in Sprague-Dawley rat bile assessed as metabolite delta1-saikogenin f level at 50 mg/kg, po administered through gavage by LC-DAD-IT-TOF-MS analysis", "parameters": "dose 50 mg/kg, route oral"}, "Plasma [33]": {"test_system": "Plasma", "experiment": "Drug metabolism in Sprague-Dawley rat plasma assessed as metabolite prosaikogenin f formation at 15 mg/kg, iv by LC-DAD-IT-TOF-MS analysis", "parameters": "dose 15 mg/kg, route intravenous"}, "Plasma [34]": {"test_system": "Plasma", "experiment": "Drug uptake in Sprague-Dawley rat plasma at 50 mg/kg, po administered through gavage by LC-DAD-IT-TOF-MS analysis", "parameters": "dose 50 mg/kg, route oral"}, "[35]": {"experiment": "Drug excretion in Sprague-Dawley rat feces assessed as metabolite prosaikogenin f level at 50 mg/kg, po administered through gavage by LC-DAD-IT-TOF-MS analysis", "parameters": "dose 50 mg/kg, route oral"}, "[36]": {"experiment": "Drug excretion in Sprague-Dawley rat bile assessed as metabolite saikogenin f-27-oic acid level at 15 mg/kg, iv by LC-DAD-IT-TOF-MS analysis", "parameters": "dose 15 mg/kg, route intravenous"}, "Plasma [37]": {"test_system": "Plasma", "experiment": "Drug metabolism in Sprague-Dawley rat plasma assessed as metabolite saikogenin f-27-oic acid formation at 15 mg/kg, iv by LC-DAD-IT-TOF-MS analysis", "parameters": "dose 15 mg/kg, route intravenous"}, "[38]": {"experiment": "Drug excretion in Sprague-Dawley rat feces assessed as metabolite saikogenin f level at 15 mg/kg, iv by LC-DAD-IT-TOF-MS analysis", "parameters": "dose 15 mg/kg, route intravenous"}},
  "data": [
    {"compound": "C[C@H]1O[C@@H](O[C@H]2CC[C@@]3(C)[C@@H](CC[C@]4(C)[C@@H]3C=C[C@]35OC[C@@]6(CCC(C)(C)C[C@H]63)[C@@H](O)C[C@]54C)[C@]2(C)CO)[C@H](O)[C@@H](O[C@@H]2O[C@H](CO)[C@@H](O)[C@H](O)[C@H]2O)[C@H]1O", "note": "[SAIKOSAPONIN A]", "values": [
      {"measurement": "Drug excretion", "setting": "[1]", "result": "metabolite_not_detected"},
      {"measurement": "Drug excretion", "setting": "[2]", "result": "metabolite_detected"},
      {"measurement": "Drug excretion", "setting": "[3]", "result": "metabolite_not_detected"},
      {"measurement": "Drug excretion", "setting": "[4]", "result": "metabolite_not_detected"},
      {"measurement": "Drug metabolism", "setting": "Plasma [5]", "result": "metabolite_not_detected"},
      {"measurement": "Drug excretion", "setting": "[6]", "result": "metabolite_not_detected"},
      {"measurement": "Drug metabolism", "setting": "Plasma [7]", "result": "metabolite_not_detected"},
      {"measurement": "Drug excretion", "setting": "[8]", "result": "metabolite_detected"},
      {"measurement": "Drug excretion", "setting": "[9]", "result": "metabolite_detected"},
      {"measurement": "Drug excretion", "setting": "[10]", "result": "metabolite_not_detected"},
      {"measurement": "Drug excretion", "setting": "[11]", "result": "metabolite_not_detected"},
      {"measurement": "Drug excretion", "setting": "[12]", "result": "metabolite_detected"},
      {"measurement": "Drug excretion", "setting": "[13]", "result": "metabolite_not_detected"},
      {"measurement": "Drug excretion", "setting": "[14]", "result": "metabolite_detected"},
      {"measurement": "Drug excretion", "setting": "[15]", "result": "metabolite_detected"},
      {"measurement": "Drug excretion", "setting": "[16]", "result": "metabolite_detected"},
      {"measurement": "Drug excretion", "setting": "[17]", "result": "metabolite_not_detected"},
      {"measurement": "Drug excretion", "setting": "[18]", "result": "metabolite_not_detected"},
      {"measurement": "Drug excretion", "setting": "[19]", "result": "metabolite_detected"},
      {"measurement": "Drug excretion", "setting": "[20]", "result": "metabolite_detected"},
      {"measurement": "Drug excretion", "setting": "[21]", "result": "metabolite_detected"},
      {"measurement": "Drug excretion", "setting": "[22]", "result": "metabolite_not_detected"},
      {"measurement": "Drug uptake", "setting": "Plasma [23]", "result": "Active"},
      {"measurement": "Drug excretion", "setting": "[24]", "result": "metabolite_not_detected"},
      {"measurement": "Drug excretion", "setting": "[25]", "result": "metabolite_detected"},
      {"measurement": "Drug excretion", "setting": "[26]", "result": "metabolite_not_detected"},
      {"measurement": "Drug excretion", "setting": "[27]", "result": "metabolite_not_detected"},
      {"measurement": "Drug metabolism", "setting": "Plasma [28]", "result": "metabolite_not_detected"},
      {"measurement": "Drug excretion", "setting": "[29]", "result": "metabolite_detected"},
      {"measurement": "Drug metabolism", "setting": "Plasma [30]", "result": "metabolite_not_detected"},
      {"measurement": "Drug excretion", "setting": "[31]", "result": "metabolite_detected"},
      {"measurement": "Drug excretion", "setting": "[32]", "result": "metabolite_not_detected"},
      {"measurement": "Drug metabolism", "setting": "Plasma [33]", "result": "metabolite_detected"},
      {"measurement": "Drug uptake", "setting": "Plasma [34]", "result": "Active"},
      {"measurement": "Drug excretion", "setting": "[35]", "result": "metabolite_detected"},
      {"measurement": "Drug excretion", "setting": "[36]", "result": "metabolite_not_detected"},
      {"measurement": "Drug metabolism", "setting": "Plasma [37]", "result": "metabolite_not_detected"},
      {"measurement": "Drug excretion", "setting": "[38]", "result": "metabolite_detected"}
    ]}
  ]
}
